Consider 15 compounds from patent publication US20250331521A1, “NITROGEN-CONTAINING HETEROCYCLIC COMPOUND HAVING AN OXIME GROUP, AGRICULTURAL OR HORTICULTURAL HERBICIDE COMPRISING THE COMPOUND, AND METHOD FOR USING THE COMPOUND OR THE HERBICIDE” (NIHON NOHYAKU CO., LTD., priority 2022, published 2025).

In the test the test system is Barnyard grass (Echinochloa crus-galli). As to the kind of experiment: Test Example 1: post-emergence herbicidal effect against paddy weeds. The format is in vivo. As to conditions: 144 h, active ingredient concentration 10 ppm, drop treatment in hydroponic medium, 30° C., full light, six days after treatment, compared to non-treatment group, read-out: herbicidal effect against barnyard grass (score, degree of growth inhibition). The protocol:
Test Example 1: Test for Post-Emergence Herbicidal Effect Against Paddy Weeds Barnyard grass (Echinochloa crus-galli) was seeded and grown in test tubes containing hydroponic medium in an artificial climate chamber or a phytotron. Agrochemical formulations containing the compounds of the present invention as active ingredients prepared according to Formulation Example 1 were separately diluted with water so that the concentration of the active ingredient would be a predetermined concentration and used for drop treatment of the barnyard grass. The barnyard grass was grown in the artificial climate chamber at 30° C. under full light conditions. Six days after agrochemical treatment, the herbicidal effect was evaluated as compared to the non-treatment group according to the following criteria. Criteria for Herbicidal Effect (Degree of Growth Inhibition) and Phytotoxicity • Score 4 90% to 100% herbicidal effect • Score 3 70% to 89% herbicidal effect • Score 2 40% to 69% herbicidal effect • Score 1 1% to 39% herbicidal effect • Score 0 0% herbicidal effect
Regarding `CCO/N=C(\N)c1ccc(S(=O)(=O)NC)c(-c2nc(-c3ccccc3)nn2C)n1` [Compound No. 1-4, (Z)-N′-ethoxy-6-(1-methyl-3-phenyl-1H-1,2,4-triazol-5-yl)-5-(N-methylsulfamoyl)picolinimidamide], the inhibition (in general, the drop in the measured response relative to a control, in per cent) at 10 ppm is 70 to 89%. Under `CCO/N=C(\N)c1ccc(S(=O)(=O)NC)c(-c2nc(-c3ccccc3)cn2C)n1` [Compound No. 2-33, (Z)-N′-ethoxy-6-(1-methyl-4-phenyl-1H-imidazol-2-yl)-5-(N-methylsulfamoyl)picolinimidamide] stands 70 to 89%; under `CCO/N=C(\N)c1ccc(S(=O)(=O)NC)c(-n2nc(-c3ccccc3)nc2C)n1` [Compound No. 3-3, (Z)-N′-ethoxy-6-(5-methyl-3-phenyl-1H-1,2,4-triazol-1-yl)-5-(N-methylsulfamoyl)picolinimidamide], 70 to 89%; under `CCO/N=C(\N)c1ccc(S(=O)(=O)NC)c(-n2nc(-c3ccccc3)cc2C)n1` [Compound No. 4-6, (Z)-N′-ethoxy-6-(5-methyl-3-phenyl-1H-pyrazol-1-yl)-5-(N-methylsulfamoyl)picolinimidamide], 70 to 89%. Under `CCO/N=C(\N)c1ccc(C(=O)OCC)c(-c2nn(-c3ccccc3)c(=O)n2C)n1` [Compound No. 5-3, (Z)-ethyl 6-(N′-ethoxycarbamimidoyl)-2-(4-methyl-5-oxo-1-phenyl-4,5-dihydro-1H-1,2,4-triazol-3-yl)nicotinate] stands 70 to 89%; under `CCO/N=C(\C)c1ccc(S(C)(=O)=O)c(-n2c(C)nn(-c3ccccc3)c2=O)n1` [Compound No. 6-1, (E)-4-(6-(1-(ethoxyimino)ethyl)-3-(methylsulfonyl)pyridin-2-yl)-3-methyl-1-phenyl-1H-1,2,4-triazol-5(4H)-one], 70 to 89%; under `CCO/N=C(\N)c1ccc(C(=O)OCC)c(-c2nc(-c3ccccc3)sc2C)n1` [Compound No. 7-1, (Z)-ethyl 6-(N′-ethoxycarbamimidoyl)-2-(5-methyl-2-phenylthiazol-4-yl)nicotinate], 70 to 89%. Under `CCO/N=C(\N)c1ccc(S(=O)(=O)NC)c(-c2csc(-c3ccccc3)n2)n1` [Compound No. 7-18, (Z)-N′-ethoxy-5-(N-methylsulfamoyl)-6-(2-phenylthiazol-4-yl)picolinimidamide] stands 70 to 89%. Consider `CCO/N=C(\N)c1ccc(S(=O)(=O)NC)c(-c2nc(-c3ccccc3)cs2)n1` [Compound No. 8-2, (Z)-N′-ethoxy-5-(N-methylsulfamoyl)-6-(4-phenylthiazol-2-yl)picolinimidamide], for which the inhibition at 10 ppm fell in the range of 70 to 89%. Under `CCO/N=C(\N)c1ccc(S(C)(=O)=O)c(-c2nc(-c3ccccc3)cs2)n1` [Compound No. 8-17, (Z)-N′-ethoxy-5-(methylsulfonyl)-6-(4-phenylthiazol-2-yl)picolinimidamide] stands 70 to 89%.

Turning to `CCO/N=C(\N)c1ccc(S(=O)(=O)NC)c(-c2nn(-c3ccccc3)cc2C)n1` [Compound No. 10-2, (Z)-N′-ethoxy-6-(4-methyl-1-phenyl-1H-pyrazol-3-yl)-5-(N-methylsulfamoyl)picolinimidamide], the inhibition at 10 ppm is 70 to 89%. With `CCO/N=C(\N)c1ccc(S(C)(=O)=O)c(-c2nn(-c3ccccc3)cc2C)n1` [Compound No. 10-16, (Z)-N′-ethoxy-6-(4-methyl-1-phenyl-1H-pyrazol-3-yl)-5-(methylsulfonyl)picolinimidamide], the inhibition at 10 ppm lay within 70 to 89%. In the case of `CCO/N=C(\N)c1ccc(S(C)(=O)=O)c(-c2nn(-c3ccccc3[N+](=O)[O-])nc2C)n1` [Compound No. 11-95, (Z)-N′-ethoxy-6-(5-methyl-2-(2-nitrophenyl)-2H-1,2,3-triazol-4-yl)-5-(methylsulfonyl)picolinimidamide] it was 70 to 89%; in that of `CCO/N=C(\N)c1ccc(S(=O)(=O)NC)c(-c2nc(-c3ccccc3Cl)nn2C)c1` [Compound No. 17-2, (Z)-3-(3-(2-chlorophenyl)-1-methyl-1H-1,2,4-triazol-5-yl)-N′-ethoxy-4-(N-methylsulfamoyl)benzimidamide], 70 to 89%. In the case of `CCO/N=C(\N)c1ccc(S(=O)(=O)NC)c(-n2nc(C)c(-c3ccccc3)n2)n1` [Compound No. 20-17, (Z)-N′-ethoxy-6-(4-methyl-5-phenyl-2H-1,2,3-triazol-2-yl)-5-(N-methylsulfamoyl)picolinimidamide] it was 70 to 89%.
